The values below come from patent publication US10941157B2, “Pesticidal compositions and uses thereof” (Gilead Apollo, LLC, priority 2015, dated 2021).

Values after ≈ are worked out from the molar mass of the structure shown. Read-outs that look alike come from different tables or passages of the source.

The subject of assay [1] is Botrtyis cinerea (Bc). The assay can be described thus: In vitro pathogen growth inhibition assay, Bc. The following applies: 48 h. The class given is cell-based. The method in brief:
(§1)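 Spores in 17% V8 liquid medium, or 1.5 mm Rs mycelial plugs in ¼ PDB, incubated with compound; final concentration checked by OD600 for precipitation. OD readings at 24 and 48 h, blank-subtracted, plus visual ratings; value is concentration giving ≥90% growth inhibition.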

Assay [2] deals with Collectotrichum graminicola (Cg). The assay can be described thus: In vitro pathogen growth inhibition assay, Cg. The class given is cell-based. The settings on record: 48 h. Put shortly:
as §1

The test system of assay [3] is Diplodia maydis (Dm). As to the kind of experiment: In vitro pathogen growth inhibition assay, Dm. The class given is cell-based. The settings on record: Stenocarpella maydis, 48 h. Put shortly: (§2)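 Spores of Dm, Fv and Pc were diluted in 17% V8 liquid medium; Rs used 1.5 mm mycelial plugs in ¼ PDB. Compounds from 2.5 mg/ml DMSO stocks were combined with inoculum, growth was read by OD600 at 24 and 48 h with blank subtraction, and the reported value is the concentration giving ≥90% inhibition.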

Assay [4] deals with Fusarium virguliforme (Fv). As to the kind of experiment: In vitro pathogen growth inhibition assay, Fv. The class given is cell-based. Put shortly:
as §2

In assay [5] the test system is Septoria tritici (St). The assay can be described thus: In vitro pathogen growth inhibition assay, St. The format is cell-based. The following applies: Zymoseptoria tritici, 48 h. Put shortly: as §1
For assay [6], the system named is Pythium ultimum. The assay can be described thus: Seed protectant for soybean seedling disease, P. ultimum. The format is in vivo. The settings on record: soybean from treated seeds, 0.025 mg/seed, P. ultimum inoculated; for Plant Weight: fresh weight at 14 days; for Improvement in plant weight: percentage of non-inoculated non-treated controls. The procedure:
The pathogen of Rhizoctonia solani inoculum was grown on sterile sorghum; and the pathogen of Pythium ultimum inoculum was grown on white millet.
Soybean seeds (Glycine max cv. AG4832) were planted in 2.5-inch square pots containing Berger BM2 germination mix amended with fertilizer (e.g., 14-14-14). Pots with soil were inoculated with the pathogen of R. solani or P. ultimum at time of planting. A hole was pressed into the soil to a depth of about 2 to 3 cm; the inoculum was added to the hole, followed by the seed which was then covered with soil. Two seeds per pot were planted. Plants were grown in a growth chamber at conditions of 20 to 24° C., 14 hour light cycle, 500 uM of light, and 65% humidity. The pots inoculated with P. ultimum were sub-irrigated every day; and the pots inoculated with R. solani were sub-irrigated every other day.
Seedling emergence was captured at 7 and 14 days after seeding. At 14 days, the top of the plant was removed and fresh weight was recorded. The plant weights from the seeds treated with test compounds (e.g., in formulations) were compared to the ones either from the inoculated non-treated seeds or non-inoculated non-treated seeds. Table 10 lists the results of the R. solani control in soybean upon seed treatment with test compounds, and Table 11 lists the results of the P. ultimum control in soybean upon seed treatment with test compounds, respectively.

Assay [7] concerns Fusarium graminearum. The class given is in vivo. The settings on record: corn from treated seeds, 0.025 mg/seed, F. graminearum inoculated.
In assay [8] the test system is Blumeria graminis f. sp. hordei. The assay can be described thus: Early foliar disease control via seed treatment (barley powdery mildew). The class given is in vivo. The settings on record: seed treatment rate 0.025 mg/seed; barley inoculated 7 days after planting, evaluated 7 days later. The procedure:
Barley seeds (Hordeum vulgare cv. Perry or Conlon) were treated with a test compound dissolved in pure acetone, in which the acetone solution (1 mL) was used per 50 seeds in glass jars in a fume hood. The seeds were swirled in the glass jars by hand until no obvious presence of acetone remained and the seeds were mostly dry. Plants were grown for 7 days in 2-inch square pots containing Metromix 200 medium amended with fertilizer. […] After inoculation with the pathogen of Blumeria graminis f. sp. hordei, plants were kept at conditions of 20 to 22° C., 200 uM of light, 70% humidity to facilitate infection and disease development. At 7 days after planting (1st true leaf fully expanded), the plants were moved to the cooler chamber and inoculated by shaking well-colonized, untreated stock plants above the treated material. […] Efficacy was evaluated in 7 days later by examining leaves for colonization and growth of powdery mildew. Each side of each leaf was assigned a severity rating of 0, 1, 5, 10, 25, 50, 75, or 100 percent diseased area. Table 14 lists the results of barley powdery mildew control upon seed treatment with test compounds.

The mark [9] stands for this setting: ≥90% growth inhibition, 48 hours, vs 2% DMSO control, read-out: Compound Concentration (ppm) sufficient for ≥90% inhibition of Bc.
Where [10] appears, read: ≥90% growth inhibition, 48 hours, vs 2% DMSO control, read-out: Compound Concentration (ppm) sufficient for ≥90% inhibition of Cg.
[11] abbreviates: ≥90% growth inhibition, 48 hours, vs 2% DMSO control, read-out: Compound Concentration (ppm) sufficient for ≥90% inhibition of Dm.
The mark [12] stands for this setting: ≥90% growth inhibition, 48 hours, vs 2% DMSO control, read-out: Compound Concentration (ppm) sufficient for ≥90% inhibition of Fv.
Setting [13] is: ≥90% growth inhibition, 48 hours, vs 2% DMSO control, read-out: Compound Concentration (ppm) sufficient for ≥90% inhibition of St.

With `COc1ccc(F)cc1[C@H](Cn1c(=O)n(C(C)(C)C(=O)NC(C)C)c(=O)c2c(C)c(-n3nccn3)sc21)OCCC#N` [Compound I-095, (R)-2-(1-(2-(2-cyanoethoxy)-2-(5-fluoro-2-methoxyphenyl)ethyl)-5-methyl-2,4-dioxo-6-(2H-1,2,3-triazol-2-yl)-1,4-dihydrothieno[2,3-d]pyrimidin-3 (2H)-yl)-N-isopropyl-2-methylpropanamide], the IC90 in assay [1] (≥90% inhibition, 48 hours vs 2% DMSO control, read-out: Compound Concentration (ppm) sufficient for ≥90% inhibition of growth, Bc) was 0.4 µg/mL (≈ 0.669 µM); in assay [2] (≥90% inhibition, 48 hours vs 2% DMSO control, read-out: Compound Concentration (ppm) sufficient for ≥90% inhibition of growth, Cg), 0.08 µg/mL (≈ 0.134 µM); in assay [3] (≥90% inhibition, 48 hours vs 2% DMSO control, read-out: Compound Concentration (ppm) sufficient for ≥90% inhibition of growth, Dm), 0.08 µg/mL (≈ 0.134 µM); in assay [4] (≥90% inhibition, 48 hours vs 2% DMSO control, read-out: Compound Concentration (ppm) sufficient for ≥90% inhibition of growth, Fv), 0.08 µg/mL (≈ 0.134 µM); in assay [5] (≥90% inhibition, 48 hours vs 2% DMSO control, read-out: Compound Concentration (ppm) sufficient for ≥90% inhibition of growth, St) it was above 50 µg/mL. Besides, the “Plant Weight” value in assay [6] was 4.65 g. The “Improvement in plant weight” value in assay [6] came out at 74%. The “Plant Height” value in assay [7] (Table 12) is 39.41 cm; in assay [7] (Table 13), 43.97 cm.
Regarding `COc1ccc(F)cc1[C@H](Cn1c(=O)n(C(C)(C)C(=O)NC(C)C)c(=O)c2c(C)c(-n3cccn3)sc21)OCCC#N` [Compound I-191, (R)-2-(1-(2-(2-cyanoethoxy)-2-(5-fluoro-2-methoxyphenyl)ethyl)-5-methyl-2,4-dioxo-6-(1H-pyrazol-1-yl)-1,4-dihydrothieno[2,3-d]pyrimidin-3 (2H)-yl)-N-isopropyl-2-methylpropanamide], the IC90 was 0.4 µg/mL (≈ 0.67 µM) in assay [1] (setting [9]); at least 0.4 µg/mL in assay [2] (setting [10]); at least 0.4 µg/mL in assay [3] (setting [11]); 0.4 µg/mL (≈ 0.67 µM) in assay [4] (setting [12]); at least 10 µg/mL in assay [5] (setting [13]). Besides, in assay [6], the “Plant Weight” value is reported as 5.00 g. Moreover, the “Improvement in plant weight” value in assay [6] is on record as 80%. Besides, the “Plant Height” value in assay [7] (Table 12) was determined as 35.50 cm. Further, the “Barley Powdery Mildew Reduction (%)” value in assay [8] amounted to 94%.
Consider `COc1ccccc1[C@H](Cn1c(=O)n(C(C)(C)C(=O)NC(C)C)c(=O)c2c(C)c(-n3nccn3)sc21)OCCC#N` [Compound I-193, (R)-2-(1-(2-(2-cyanoethoxy)-2-(2-methoxyphenyl)ethyl)-5-methyl-2,4-dioxo-6-(2H-1,2,3-triazol-2-yl)-1,4-dihydrothieno[2,3-d]pyrimidin-3 (2H)-yl)-N-isopropyl-2-methylpropanamide], for which the IC90 was at least 0.08 µg/mL in assay [1] (setting [9]); at least 0.08 µg/mL in assay [2] (setting [10]); 0.08 µg/mL (≈ 0.138 µM) in assay [3] (setting [11]); 0.4 µg/mL (≈ 0.69 µM) in assay [4] (setting [12]); at least 2 µg/mL in assay [5] (setting [13]). In addition, the “Plant Weight” value in assay [6] is listed as 5.36 g. In addition, the “Improvement in plant weight” value in assay [6] came out at 86%. Moreover, the “Plant Height” value in assay [7] (Table 13) was determined as 40.66 cm. For the same compound, the “Barley Powdery Mildew Reduction (%)” value in assay [8] is 96%.
